Experiment [1] concerns SGC-7901. The experiment in a line: Antiproliferative activity against human SGC7901 cells measured after 72 hrs by MTT assay. Format: functional, cell-based. Particulars: SGC-7901, 72 h. In general terms: Formazan colour is commonly taken as a measure of viable cells.
The subject of experiment [2] is KB. The experiment in a line: Antiproliferative activity against human KB cells measured after 72 hrs by MTT assay. The format is functional, cell-based.
The test system of experiment [3] is HT-1080. The experiment in a line: Antiproliferative activity against human HT1080 cells measured after 72 hrs by MTT assay. Format: functional, cell-based. Conditions: HT-1080, 72 h.
Experiment [4] has as its target T1, Tubulin (Sus scrofa) (UniProt P02554+P02550). Briefly: Inhibition of porcine brain tubulin polymerization at 3 to 20 uM preincubated before GTP addition and measured at 1 min intervals for 90 mins by fluorescence based assay.
The target of experiment [5] is Tubulin (Sus scrofa, UniProt P02554+P02550). The experiment in a line: Inhibition of porcine brain tubulin polymerization preincubated before GTP addition and measured at 1 min intervals for 90 mins by fluorescence based assay.
In experiment [6] the test system is SGC-7901. Briefly: Induction of polyploidy in human SGC7901 cells at 2 fold IC50 concentration measured after 72 hrs by propidium iodide staining based FACScan flow cytometry. The format is functional, cell-based. (In general: A flow cytometer gives signals particle by particle.)
Experiment [7] has as its system SGC-7901. The experiment in a line: Cell cycle arrest in human SGC7901 cells assessed as accumulation of cell population in G2/M phase at 2 fold IC50 concentration for 12 to 72 hrs by propidium iodide staining based FACScan flow cytometry. Format: functional. Conditions: TDE = time-dependent effect.
The subject of experiment [8] is SGC-7901. Briefly: Cell cycle arrest in human SGC7901 cells assessed as increase in cell population at sub-G1 phase at 2 fold IC50 concentration measured after 36 hrs by propidium iodide staining based FACScan flow cytometry. Format: functional.
Experiment [9] deals with T2, Tubulin (Homo sapiens) (UniProt P68371+Q9H4B7+P0DPH7+P68366+Q13509+Q71U36+P04350+Q3ZCM7+P07437+P68363+Q9BQE3+Q6PEY2+Q13885+Q9BVA1+Q9BUF5). Briefly: Induction of microtubule depolymerization in human SGC7901 cells assessed as change in microtubule morphology at 2 fold antiproliferative IC50 measured after 24 hrs by DAPI staining based fluorescence microscopy. Format: cell-based.

Experiment [10] addresses T2, Tubulin (Homo sapiens). Briefly: Inhibition of microtubule formation in human SGC7901 cells assessed as mitotic catastrophe at 2 fold IC50 concentration measured after 24 hrs by DAPI staining based fluorescence microscopy. The format is cell-based.
Experiment [11] addresses T2, Tubulin (Homo sapiens). The experiment in a line: Inhibition of microtubule formation in human SGC7901 cells at 2 fold IC50 concentration measured after 24 hrs by DAPI staining based fluorescence microscopy. Format: cell-based.
In experiment [12] the test system is SGC-7901. Briefly: Cell cycle arrest in human SGC7901 cells assessed as increase in cell population at G2/M phase at 2 fold IC50 concentration measured after 12 hrs by propidium iodide staining based FACScan flow cytometry. The format is functional.
In experiment [13] the test system is SGC-7901. The experiment in a line: Cell cycle arrest in human SGC7901 cells assessed as increase in cell population at G2/M phase at 2 fold IC50 concentration measured after 24 hrs by propidium iodide staining based FACScan flow cytometry. The format is functional.
The test system of experiment [14] is SGC-7901. Briefly: Cell cycle arrest in human SGC7901 cells assessed as decrease in cell population at G2/M phase at 2 fold IC50 concentration measured after 36 hrs by propidium iodide staining based FACScan flow cytometry. The format is functional.
The test system of experiment [15] is SGC-7901. The experiment in a line: Cell cycle arrest in human SGC7901 cells assessed as decrease in cell population at G2/M phase at 2 fold IC50 concentration measured after 48 hrs by propidium iodide staining based FACScan flow cytometry. The format is functional.
The subject of experiment [16] is SGC-7901. Briefly: Cell cycle arrest in human SGC7901 cells assessed as decrease in cell population at G2/M phase at 2 fold IC50 concentration measured after 72 hrs by propidium iodide staining based FACScan flow cytometry. The format is functional.
Experiment [17] concerns SGC-7901. Briefly: Cell cycle arrest in human SGC7901 cells assessed as increase in cell population at sub-G1 phase at 2 fold IC50 concentration measured after 48 hrs by propidium iodide staining based FACScan flow cytometry. The format is functional.
In experiment [18] the test system is SGC-7901. Briefly: Cell cycle arrest in human SGC7901 cells assessed as increase in cell population at sub-G1 phase at 2 fold IC50 concentration measured after 72 hrs by propidium iodide staining based FACScan flow cytometry. Format: functional.
For experiment [19], the target named is T1, Tubulin (Sus scrofa). Particulars: 4 uM.
Description: Inhibition of porcine brain tubulin polymerization at 4 uM preincubated before GTP addition and measured at 1 min intervals for 90 mins by fluorescence based assay

The source made the active and inactive calls. The rule behind the calls is not given here.

T1 sequence (P02550 whole entry, looked up): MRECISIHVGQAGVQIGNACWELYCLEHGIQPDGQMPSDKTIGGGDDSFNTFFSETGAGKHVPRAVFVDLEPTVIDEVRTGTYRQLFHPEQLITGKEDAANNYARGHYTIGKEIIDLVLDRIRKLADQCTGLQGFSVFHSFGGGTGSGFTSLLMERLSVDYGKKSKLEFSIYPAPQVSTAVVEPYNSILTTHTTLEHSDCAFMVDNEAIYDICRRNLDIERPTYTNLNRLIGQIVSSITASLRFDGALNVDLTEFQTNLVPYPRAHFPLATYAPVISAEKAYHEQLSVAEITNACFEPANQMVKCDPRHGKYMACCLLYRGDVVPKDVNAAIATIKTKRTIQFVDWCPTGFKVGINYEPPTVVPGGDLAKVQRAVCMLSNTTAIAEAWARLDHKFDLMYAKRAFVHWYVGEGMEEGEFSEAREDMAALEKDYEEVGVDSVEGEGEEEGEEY
T1 sequence (P02554 whole entry, looked up): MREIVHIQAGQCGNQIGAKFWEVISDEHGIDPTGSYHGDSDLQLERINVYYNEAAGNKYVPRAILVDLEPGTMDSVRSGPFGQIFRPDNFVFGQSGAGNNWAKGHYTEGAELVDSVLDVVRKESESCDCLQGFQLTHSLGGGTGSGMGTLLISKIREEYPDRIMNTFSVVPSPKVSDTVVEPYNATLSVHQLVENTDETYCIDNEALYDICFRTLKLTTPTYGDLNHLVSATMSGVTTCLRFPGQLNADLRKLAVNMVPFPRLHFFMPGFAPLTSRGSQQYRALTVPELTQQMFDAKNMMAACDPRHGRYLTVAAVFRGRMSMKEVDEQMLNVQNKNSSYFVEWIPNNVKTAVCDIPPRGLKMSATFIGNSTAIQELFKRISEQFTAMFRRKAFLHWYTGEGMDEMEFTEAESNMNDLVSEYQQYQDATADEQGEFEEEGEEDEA

What is called IC50 is the concentration at which inhibition is half-maximal. Read a low IC50 as greater potency. Consider `COc1ccc(-c2c(-c3cc(OC)c(OC)c(OC)c3)cnn2C(C)=O)cc1O`, for which the half-maximal inhibitory concentration (IC50) was determined as 0.0093 µM in experiment [1], 0.022 µM in experiment [2], 0.012 µM in experiment [3] and 7.73 µM in experiment [5]. The inhibition entry in experiment [4] is “Dose-dependent effect”. For the same compound, the outcome in experiment [6], in experiment [8], in experiment [9], in [12], in experiment [13] and in experiment [14] was Active. The result in experiment [15], in experiment [16], in [17] and in experiment [18] was Active. The Activity entry in experiment [7] was “Tde”. Moreover, the inhibition result in experiment [10] and in experiment [11] was “Active” throughout.

For the compound `COc1ccc(-c2c[nH]nc2-c2cc(OC)c(OC)c(OC)c2)cc1OC`, the values for the half-maximal inhibitory concentration (IC50) in experiment [1], in experiment [2] and in experiment [3] were 36.5 µM, 5.44 µM and 4.84 µM, respectively.

As for `COc1ccc(-c2n[nH]cc2-c2cc(OC)c(OC)c(OC)c2)cc1OC`, the half-inhibitory concentration (IC50) in experiment [1] was found to be 3.81 µM; in experiment [2], 0.62 µM; in [3], 1.92 µM.

For the compound `CCOc1ccc(-c2n[nH]cc2-c2cc(OC)c(OC)c(OC)c2)cc1`, the IC50 worked out at 0.015 µM in experiment [1], 0.065 µM in experiment [2] and 0.021 µM in experiment [3].

On to `CCOc1ccc(-c2c[nH]nc2-c2cc(OC)c(OC)c(OC)c2)cc1`, for which the IC50 was determined as 0.03 µM in experiment [1], 0.035 µM in experiment [2] and 0.017 µM in experiment [3].

`COc1ccc(-c2cnn(C(C)=O)c2-c2cc(OC)c(OC)c(OC)c2)cc1O`: the IC50 in experiment [1] is 0.015 µM; in [2], 0.033 µM; in [3], 0.017 µM.

Regarding `COc1cc(-c2n[nH]cc2-c2ccc(OCc3ccccc3)cc2)cc(OC)c1OC`, the concentration for half-maximal inhibition (IC50) in experiment [1] came out at 13 µM; in experiment [2], 6.72 µM; in experiment [3] it was 8.13 µM.

Regarding `COc1ccc(-c2n[nH]cc2-c2cc(OC)c(OC)c(OC)c2)cc1OCc1ccccc1`, the IC50 in experiment [1] amounted to 28.2 µM; in experiment [2] it was 86.2 µM; in [3], 20.8 µM.

As to `COc1cc(-c2n[nH]cc2-c2ccc(O)cc2)cc(OC)c1OC`, the IC50 in experiment [1] worked out at 15.4 µM; in experiment [2], 8.47 µM; in experiment [3], 10 µM.

Regarding `COc1ccc(/C=C\c2cc(OC)c(OC)c(OC)c2)cc1O` [COMBRETASTATIN A4], the IC50 was found to be 0.13 µM in experiment [1], 0.25 µM in experiment [2] and 0.051 µM in experiment [3]. Besides, the result in [9], in experiment [12] and in experiment [13] was Active. In addition, in experiment [19], the inhibition entry was “Active”.

With `COc1cc(-c2n[nH]cc2-c2ccc(OC(F)(F)F)cc2)cc(OC)c1OC`, the IC50 in [1] is 1.34 µM; in experiment [2], 2.87 µM; in [3], 1.34 µM.

As to `COc1ccc(-c2cnn(C(C)=O)c2-c2cc(OC)c(OC)c(OC)c2)cc1OCc1ccccc1`, the IC50 came out at 10.4 µM in experiment [1], 6.72 µM in experiment [2] and 12.2 µM in experiment [3].

In the case of `COc1cc(-c2c(-c3ccc(O)cc3)cnn2C(C)=O)cc(OC)c1OC`, the IC50 in experiment [1] was 4.87 µM; in experiment [2], 5.08 µM; in experiment [3], 2.52 µM.

Regarding `COc1cc(-c2n[nH]cc2-c2ccc(F)c(F)c2)cc(OC)c1OC`, the half-inhibitory concentration (IC50) in experiment [1] stood at 14 µM; in experiment [2], 32.8 µM; in experiment [3] it was 19.3 µM.

For the compound `COc1ccc(-c2cnn(C(C)=O)c2-c2cc(OC)c(OC)c(OC)c2)cc1OC`, the values for the 50% inhibitory concentration (IC50) in experiment [1], in [2] and in [3] were 4.82 µM, 4.58 µM and 1.33 µM, respectively.

As to `CCOc1ccc(-c2cnn(C(C)=O)c2-c2cc(OC)c(OC)c(OC)c2)cc1`, the IC50 is 0.015 µM in [1], 0.036 µM in [2] and 0.019 µM in experiment [3].

`COc1cc(-c2c(-c3ccc(OC(F)(F)F)cc3)cnn2C(C)=O)cc(OC)c1OC`: the IC50 came out at 13.7 µM in experiment [1], 10.8 µM in experiment [2] and 19.5 µM in experiment [3].

In the case of `COc1ccc(-c2c(-c3cc(OC)c(OC)c(OC)c3)cnn2C(C)=O)cc1OC`, the values for the IC50 in experiment [1], in experiment [2] and in [3] were 2.03 µM, 0.7 µM and 1.21 µM, respectively.

Turning to `COc1ccc(-c2c(-c3cc(OC)c(OC)c(OC)c3)cnn2C(C)=O)cc1`, the results for the 50% inhibitory concentration (IC50) in experiment [1], in experiment [2] and in experiment [3] were 0.031 µM, 0.023 µM and 0.014 µM, respectively.

As to `CCOc1ccc(-c2c(-c3cc(OC)c(OC)c(OC)c3)cnn2C(C)=O)cc1`, the IC50 in experiment [1] was 0.2 µM; in experiment [2] it was 0.11 µM; in experiment [3] it was 0.021 µM.

In the case of `COc1ccc(-c2cn[nH]c2-c2cc(OC)c(OC)c(OC)c2)cc1O`, the IC50 came to 0.031 µM in experiment [1], 0.023 µM in experiment [2] and 0.03 µM in [3].

As to `COc1cc(-c2c(-c3ccc(OCc4ccccc4)cc3)cnn2C(C)=O)cc(OC)c1OC`, the half-inhibitory concentration (IC50) in experiment [1] amounted to 14.4 µM; in [2], 129 µM; in experiment [3], 44.9 µM.

In the case of `COc1ccc(-c2n[nH]cc2-c2cc(OC)c(OC)c(OC)c2)cc1`, the results for the IC50 in experiment [1], in experiment [2] and in experiment [3] were 0.044 µM, 0.025 µM and 0.026 µM, respectively.

On to `COc1ccc(-c2cnn(C(C)=O)c2-c2cc(OC)c(OC)c(OC)c2)cc1`, for which the IC50 was 0.013 µM in experiment [1], 0.028 µM in [2] and 0.096 µM in experiment [3].

As to `COc1ccc(-c2c[nH]nc2-c2cc(OC)c(OC)c(OC)c2)cc1OCc1ccccc1`, the IC50 is 9.26 µM in experiment [1], 7.1 µM in [2] and 10 µM in experiment [3].

On to `COc1ccc(-c2c[nH]nc2-c2cc(OC)c(OC)c(OC)c2)cc1`, for which the figures for the IC50 in [1], in experiment [2] and in experiment [3] were 0.18 µM, 0.072 µM and 0.08 µM, respectively.

On to `COc1ccc(-c2c(-c3cc(OC)c(OC)c(OC)c3)cnn2C(C)=O)cc1OCc1ccccc1`, for which the concentration for half-maximal inhibition (IC50) was found to be 30.1 µM in experiment [1], 84.2 µM in [2] and 18.4 µM in experiment [3].

Consider `COc1ccc(-c2[nH]ncc2-c2cc(OC)c(OC)c(OC)c2)cc1O`, for which the results for the IC50 in experiment [1], in experiment [2] and in experiment [3] were 0.032 µM, 0.06 µM and 0.023 µM, respectively.

Regarding `COc1cccc(-c2c[nH]nc2-c2cc(OC)c(OC)c(OC)c2)c1`, the concentration for half-maximal inhibition (IC50) turned out to be 2.2 µM in experiment [1], 1.5 µM in experiment [2] and 4.07 µM in experiment [3].

(Values after ChEMBL document CHEMBL4346671, “Synthesis and bioevaluation of diarylpyrazoles as antiproliferative agents” (Eur J Med Chem, 2019).)
